The record followed here is patent US5552520A, “Therapeutic peptide derivatives” (Biomeasure, Inc., priority 1994, dated 1996).

One assay deals with T1, somatostatin receptor (Rattus norvegicus, UniProt P30680).
T1 construct: SRIF-14 to rat AR42J pancreas membranes; endogenous in cells; host or cells: rat AR42J pancreatic cells (membrane preparation)
Description: Somatostatin binding assay: in vitro inhibition of binding of [125I-Tyr11]SRIF-14 to rat AR42J pancreas membranes. The note with it: inhibition of [125I-Tyr11]SRIF-14 binding, read-out: IC50, in vitro binding affinity.

For assay [1], the system named is stimulated growth hormone release. The experiment in a line: Growth Hormone (GH) Inhibition Assay in rats (D-Ala2-GRF stimulated GH). Type of assay: in vivo, male Sprague Dawley rats. Conditions: s.c., 25 μg/kg. How it is done:
Groups of five male Sprague Dawley rats (each having a weight between 250-300 g) were injected s.c. with a somatostatin derivative or saline. Thirty minutes prior to the selected post-drug time periods shown in table II (2 hours, 4 hours, 6 hours, 8 hours), rats were anesthetized with Nembutal i.p. (50 mg/kg). Fifteen minutes following anesthesia, an aliquot of blood was withdrawn by cardiac puncture over heparin to measure basal GH. Additionally, a s.c. injection of D-Ala^2 -GRF (10 μg/kg) was given. Fifteen minutes later, blood was withdrawn to quantitate the stimulated GH, which was measured in plasma using a radioimmunoassay supplied by NIADDKD. The percentage of GH inhibition was calculated from differences obtained between basal and stimulated GH values.
The efficacy of D-Phe-c[Cys-Tyr-D-Trp-Lys-Thr-Cys]-Nal-NH2 (SEQ ID NO. 113) (BIM-23060) in inhibiting growth hormone in rats is compared with other somatostatin derivatives (BIM-23167, BIM-23179, and BIM-23181) of the invention.
Additional experiments were conducted on D-Phe-c[Cys-Tyr-D-Trp-Lys-Abu-Cys]-Thr-NH2, (SEQ ID NO. 112) a somatostatin analog, and BIM-23190, BIM-23195 and BIM-23197, to determine the ED50 (i.e., the concentration of each compound required to inhibit fifty percent of growth hormone release after a specified time) of the respective compound. Experiments were conducted at a dose range of between 25 μg/kg and 0.25 μg/kg.

Assay [2] deals with AR42J rat pancreas tumor cells. The experiment in a line: Antiproliferative assay on AR42J cells. Conditions: Concentration 100 nM, AR42J Rat Pancreas Tumor Cells after 8 days. Format: cell-based. How it is done: The purified somatostatin analogs described above were also tested for activity against rapidly proliferating cells.
^1 Concentration 100 nM, AR42J Rat Pancreas Tumor Cells after 8 days.

In assay [3] the test system is AR42J rat pancreas tumor cells. Description: Antiproliferative assay on AR42J cells. Format: cell-based. The note with it: growth curves, concentration dependence.

Numbered stars: 1 amine (or outer) side, 2 acyl side, 3 side chain; on linkers, the order of the positions; unused ones are H or OH. Bridge positions count the residues as written; N and C are the ends. Square brackets hold non-standard residues; d marks the D form. Peptide text beside a SMILES is read from it. * marks the point of attachment. X1 = O=C1O[C@H]([C@@H](O)CO)C(OCC(=O)*)=C1OCC(O)CO; 2Nal = N[C@@H](Cc1ccc2ccccc2c1)C(=O)O; Suc = O=C(CCC(=O)[*:2])[*:1]; NHC(CH2OH)3 = OCC(CO)(CO)N*

For orientation: IC50 means the point on the concentration scale where inhibition reaches its midpoint.

T1 sequence (P30680 whole entry): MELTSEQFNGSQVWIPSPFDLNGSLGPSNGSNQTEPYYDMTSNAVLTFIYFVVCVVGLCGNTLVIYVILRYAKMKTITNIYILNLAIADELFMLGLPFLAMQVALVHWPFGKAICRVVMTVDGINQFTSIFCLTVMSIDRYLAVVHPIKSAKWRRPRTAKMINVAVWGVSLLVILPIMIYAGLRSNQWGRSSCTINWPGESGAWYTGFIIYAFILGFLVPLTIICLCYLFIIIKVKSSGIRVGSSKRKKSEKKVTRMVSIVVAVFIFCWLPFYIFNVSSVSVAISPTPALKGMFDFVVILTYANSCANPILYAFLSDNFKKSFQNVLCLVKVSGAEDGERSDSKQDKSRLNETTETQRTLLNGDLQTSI

On to `C[C@@H](O)[C@@H]1NC(=O)[C@H](CCCCN)NC(=O)[C@@H](Cc2c[nH]c3ccccc23)NC(=O)[C@H](Cc2ccc(O)cc2)NC(=O)[C@@H](NC(=O)[C@@H](Cc2ccccc2)NC(=O)CCC(=O)NC(CO)(CO)CO)CSSC[C@@H](C(=O)N[C@@H](Cc2ccc3ccccc3c2)C(N)=O)NC1=O` [BIM-23167, (HO-CH2)3 -C-NH-CO-(CH2)2 -CO-D-Phe-c[Cys-Tyr-D-Trp-Lys-Thr-Cys]-Nal-NH2] ({NHC(CH2OH)3-Suc}-[dF]CY[dW]KTC[2Nal]-NH2; disulfide 2-7), for which the IC50 at somatostatin receptor worked out at 0.09 nM. Moreover, the “Inhibition of stimulated growth hormone release (percentile control)” value is 92.67 percentile control in assay [1] (2 Hours), 79.54 percentile control in assay [1] (4 Hours), 59.72 percentile control in assay [1] (6 Hours) and 50.14 percentile control in assay [1] (8 Hours). The “Cell growth (percent of control)” value in assay [2] is reported as 60.2% of control.
On to `CC(C)[C@@H]1NC(=O)[C@H](CCCCN)NC(=O)[C@@H](Cc2c[nH]c3ccccc23)NC(=O)[C@H](Cc2ccc(O)cc2)NC(=O)[C@@H](NC(=O)[C@@H](Cc2ccc3ccccc3c2)NC(=O)CCCOC2=C(O)C(=O)O[C@@H]2[C@@H](O)CO)CSSC[C@@H](C(=O)N[C@H](C(N)=O)[C@@H](C)O)NC1=O` [BIM-23118], for which the “Cell growth (percent of control)” value in assay [2] is on record as 61.0% of control. The “Inhibition of growth of AR42J cells (FIG. 1), in words” value in assay [3] is reported as “the more effective of the two compounds”.
Turning to `C[C@@H](O)[C@@H]1NC(=O)[C@H](CCCCN)NC(=O)[C@@H](Cc2c[nH]c3ccccc23)NC(=O)[C@H](Cc2ccc(O)cc2)NC(=O)[C@@H](NC(=O)[C@@H](Cc2ccccc2)NC(=O)COC2=C(OCC(O)CO)C(=O)O[C@@H]2[C@@H](O)CO)CSSC[C@@H](C(=O)N[C@@H](Cc2ccc3ccccc3c2)C(N)=O)NC1=O` (stereo partly shown) [BIM-23181] (X1-[dF]CY[dW]KTC[2Nal]-NH2; disulfide 2-7), the “Inhibition of stimulated growth hormone release (percentile control)” value is on record as 99.24 percentile control in assay [1] (2 Hours), 77.07 percentile control in assay [1] (4 Hours), 60.56 percentile control in assay [1] (6 Hours) and 56.12 percentile control in assay [1] (8 Hours). Moreover, the “Cell growth (percent of control)” value in assay [2] is reported as 69.1% of control.
With `CSCC[C@H](NC(=O)[C@H](C)NC(=O)[C@@H]1CCCN1C(=O)[C@H](CC(N)=O)NC(=O)[C@H](CO)NC(=O)[C@H](CC(N)=O)NC(=O)[C@H](C)NC(=O)[C@@H](N)CO)C(=O)N[C@@H](C)C(=O)N1CCC[C@H]1C(=O)N[C@@H](CCCNC(=N)N)C(=O)N[C@@H](CCC(=O)O)C(=O)N[C@@H](CCCNC(=N)N)C(=O)N[C@@H](CCCCN)C(=O)N[C@@H](C)C(=O)NCC(=O)N[C@H]1CSSC[C@@H](C(=O)O)NC(=O)[C@H](CO)NC(=O)[C@H]([C@@H](C)O)NC(=O)[C@H](Cc2ccccc2)NC(=O)[C@H]([C@@H](C)O)NC(=O)[C@H](CCCCN)NC(=O)[C@H](Cc2c[nH]c3ccccc23)NC(=O)[C@H](Cc2ccccc2)NC(=O)[C@H](Cc2ccccc2)NC(=O)[C@H](CC(N)=O)NC(=O)[C@H](CCCCN)NC1=O` [SRIF-28, reference compound], the “Cell growth (percent of control)” value in assay [2] was 98.0% of control.
For “D-Nal-c[Cys-Tyr-D-Trp-Lys-Val-Cys]-Thr-NH2 [BIM-23014C, reference compound]”, the “Cell growth (percent of control)” value in assay [2] is on record as 74.1% of control. Further, the “Inhibition of growth of AR42J cells (FIG. 1), in words” value in assay [3] was “inhibit the growth of AR42J rat pancreas tumor cells in a concentration-dependent fashion”.
